Test results published in patent US12077503B2, “Substituted cyclic amides and their use as herbicides” (FMC CORPORATION, priority 2015, dated 2024).

Columns and labels:
Assay type in all cases: in vivo
[1] = tested on: ragweed (common ragweed, Ambrosia elatior); test: Test A postemergence; details: Ambrosia artemisiifolia, post-emergence, 240 h, 125 g ai/ha, postemergence; visual injury on 0 to 100 scale (0 no effect, 100 complete control), approx. 10 d; read-out: Ragweed plant response rating
Outline: (§1)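 Compounds were formulated in a non-phytotoxic solvent mixture with surfactant and applied as a preemergence directed soil spray after seeding, or sprayed postemergence over plants 2 to 10 cm tall at the one- to two-leaf stage. Evaluation after about 10 d compared treated with untreated controls, using a scale from 0 (no effect) to 100 (complete control).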

[2] = tested on: wheat (Triticum aestivum); test: Test A postemergence; details: Triticum aestivum, post-emergence, 240 h, 125 g ai/ha, postemergence; visual injury on 0 to 100 scale (0 no effect, 100 complete control), approx. 10 d; read-out: Wheat plant response rating
Outline: as §1

[3] = tested on: giant foxtail (Setaria faberii); test: Test A postemergence; details: Setaria faberi, post-emergence, 240 h, postemergence, approx. 10 d
Outline: as §1

Kochia (Kochia scoparia) [4] = test: Test A postemergence; details: Bassia scoparia, post-emergence, 240 h, postemergence, approx. 10 d
Outline: as §1

[5] = tested on: Galium (catchweed bedstraw, Galium aparine); test: Test A postemergence; details: Galium, post-emergence, 240 h, postemergence, approx. 10 d
Outline: as §1

[6] = tested on: blackgrass (Alopecurus myosuroides); test: Test A postemergence; details: Alopecurus myosuroides, post-emergence, 240 h, postemergence, approx. 10 d
Outline: as §1

corn (Zea mays) = test: Test A postemergence; details: Zea mays, post-emergence, 240 h, postemergence, approx. 10 d
Outline: as §1

[7] = tested on: barnyardgrass (Echinochloa crus-galli); test: Test A postemergence; details: Echinochloa crus-galli, post-emergence, 240 h, postemergence, approx. 10 d
Outline: as §1

[8] = tested on: ryegrass, Italian (Italian ryegrass, Lolium multiflorum); test: Test A postemergence; details: Lolium multiflorum, post-emergence, 240 h, 125 g ai/ha, postemergence; visual injury on 0 to 100 scale (0 no effect, 100 complete control), approx. 10 d; read-out: Ryegrass, Italian plant response rating
Outline: as §1

[9] = tested on: ragweed (common ragweed, Ambrosia elatior); test: Test A preemergence; details: Ambrosia artemisiifolia, pre-emergence, 240 h
Outline: as §1

[10] = tested on: pigweed (Amaranthus retroflexus); test: Test A preemergence; details: Amaranthus retroflexus, pre-emergence, 240 h
[11] = tested on: giant foxtail (Setaria faberii); test: Test A preemergence; details: Setaria faberi, pre-emergence, 240 h
Outline: as §1

Kochia (Kochia scoparia) [12] = test: Test A preemergence; details: Bassia scoparia, pre-emergence, 240 h
Outline: as §1

[13] = tested on: barnyardgrass (Echinochloa crus-galli); test: Test A preemergence; details: Echinochloa crus-galli, pre-emergence, 240 h
Outline: as §1

[14] = tested on: ryegrass, Italian (Italian ryegrass, Lolium multiflorum); test: Test A preemergence; details: Lolium multiflorum, pre-emergence, 240 h
Outline: as §1

O=C(Nc1ccccc1C(F)(F)F)[C@H]1C(=S)NC[C@@H]1c1ccc(C(F)(F)F)cc1 (racemic) [Compound 1049] gave a pest or weed control at 125 g/ha [1] of 0%, a plant injury at 125 g/ha [2] of 0% and a pest or weed control at 125 g/ha ([3]; 125 g ai/ha, visual injury on 0 to 100 scale (0 no effect, 100 complete control), read-out: Foxtail, Giant plant response rating) of 70%. The pest or weed control at 500 g/ha ([3]; 500 g ai/ha, visual injury, 0 to 100 scale (0 no effect, 100 complete control), read-out: Plant response rating, Foxtail, Giant) was 80%, the pest or weed control at 125 g/ha (Kochia (Kochia scoparia) [4]; 125 g ai/ha, visual injury on 0 to 100 scale (0 no effect, 100 complete control), read-out: Kochia plant response rating) was 0% and the pest or weed control at 500 g/ha (Kochia (Kochia scoparia) [4]; 500 g ai/ha, visual injury, 0 to 100 scale (0 no effect, 100 complete control), read-out: Plant response rating, Kochia) was 30%. It also gave a pest or weed control at 125 g/ha ([5]; 125 g ai/ha, visual injury on 0 to 100 scale (0 no effect, 100 complete control), read-out: Galium plant response rating) of 0%, a pest or weed control at 500 g/ha ([5]; 500 g ai/ha, visual injury, 0 to 100 scale (0 no effect, 100 complete control), read-out: Plant response rating, Galium) of 40% and a pest or weed control at 125 g/ha ([6]; 125 g ai/ha, visual injury on 0 to 100 scale (0 no effect, 100 complete control), read-out: Blackgrass plant response rating) of 0%. It also gave a pest or weed control at 500 g/ha ([6]; 500 g ai/ha, visual injury, 0 to 100 scale (0 no effect, 100 complete control), read-out: Plant response rating, Blackgrass) of 0%, a plant injury at 125 g/ha (corn (Zea mays); 125 g ai/ha, visual injury on 0 to 100 scale (0 no effect, 100 complete control), read-out: Corn plant response rating) of 0% and a Corn plant response rating (crop injury, 0 = no effect, 100 = complete kill) at 500 g/ha (corn (Zea mays); 500 g ai/ha, visual injury, 0 to 100 scale (0 no effect, 100 complete control)) of 0%. It also gave a pest or weed control at 125 g/ha ([7]; 125 g ai/ha, visual injury on 0 to 100 scale (0 no effect, 100 complete control), read-out: Barnyardgrass plant response rating) of 30%, a pest or weed control at 500 g/ha ([7]; 500 g ai/ha, visual injury, 0 to 100 scale (0 no effect, 100 complete control), read-out: Plant response rating, Barnyardgrass) of 50% and a pest or weed control at 125 g/ha [8] of 0%. For the same molecule, the pest or weed control at 125 g/ha ([9]; 125 g ai/ha, Preemergence, visual injury rating after approximately 10 d, read-out: Ragweed plant response rating (0 to 100 scale, 0 is no effect, 100 is complete control)) was 20%, the pest or weed control at 500 g/ha ([9]; 500 g ai/ha, preemergence, visual injury rating about 10 d after treatment, 0 to 100 scale (0 no effect, 100 complete control), read-out: Ragweed plant response rating) was 40% and the pest or weed control at 125 g/ha ([10]; 125 g ai/ha, Preemergence, visual injury rating after approximately 10 d, read-out: Pigweed plant response rating (0 to 100 scale, 0 is no effect, 100 is complete control)) was 0%. It also gave a pest or weed control at 500 g/ha ([10]; 500 g ai/ha, preemergence, visual injury rating about 10 d after treatment, 0 to 100 scale (0 no effect, 100 complete control), read-out: Pigweed plant response rating) of 60%, a pest or weed control at 125 g/ha ([11]; 125 g ai/ha, Preemergence, visual injury rating after approximately 10 d, read-out: Foxtail, Giant plant response rating (0 to 100 scale, 0 is no effect, 100 is complete control)) of 80% and a pest or weed control at 500 g/ha ([11]; 500 g ai/ha, preemergence, visual injury rating about 10 d after treatment, 0 to 100 scale (0 no effect, 100 complete control), read-out: Foxtail, Giant plant response rating) of 90%. The pest or weed control at 125 g/ha (Kochia (Kochia scoparia) [12]; 125 g ai/ha, Preemergence, visual injury rating after approximately 10 d, read-out: Kochia plant response rating (0 to 100 scale, 0 is no effect, 100 is complete control)) was 30%, the pest or weed control at 500 g/ha (Kochia (Kochia scoparia) [12]; 500 g ai/ha, preemergence, visual injury rating about 10 d after treatment, 0 to 100 scale (0 no effect, 100 complete control), read-out: Kochia plant response rating) was 70% and the pest or weed control at 125 g/ha ([13]; 125 g ai/ha, Preemergence, visual injury rating after approximately 10 d, read-out: Barnyardgrass plant response rating (0 to 100 scale, 0 is no effect, 100 is complete control)) was 30%. For the same molecule, the pest or weed control at 500 g/ha ([13]; 500 g ai/ha, preemergence, visual injury rating about 10 d after treatment, 0 to 100 scale (0 no effect, 100 complete control), read-out: Barnyardgrass plant response rating) was 70%, the pest or weed control at 125 g/ha ([14]; 125 g ai/ha, Preemergence, visual injury rating after approximately 10 d, read-out: Ryegrass, Italian plant response rating (0 to 100 scale, 0 is no effect, 100 is complete control)) was 0% and the pest or weed control at 500 g/ha ([14]; 500 g ai/ha, preemergence, visual injury rating about 10 d after treatment, 0 to 100 scale (0 no effect, 100 complete control), read-out: Ryegrass, Italian plant response rating) was 30%.
